Reference: US12252701B2, “Chimeric antigen receptor T cell therapy” (KITE PHARMA, INC., priority 2020, dated 2025)

What was measured:
[1] = in vitro; settings: human, CAR-T cells
Protocol: (§1) 96-well plates were coated with 100 μl of KIP-1 antibody per well at 1 μg/ml in PBS and plates were incubated at 4° C. overnight. CAR-T cells were thawed and were rested in ImmunoCult expansion medium and incubated overnight at 37° C. Cells were then counted and resuspended at 2 million cells/ml and seed at 200,000 cells per well in 100 μl of expansion medium with 10 ng/ml recombinant IL2. For groups treated with KIP-1, 100 μl of expansion medium were added with 2× final drug dilutions. For CD3/CD28 treated groups, 100 μl of expansion media were added with 2× final drug dilutions containing 25 μl/ml of CD3/CD28 T cell activator from StemCell Technologies. Cells were then incubated at 37° C. After 4 days, cells were counted and diluted 1 to 8-fold in expansion media and then transferred to a 24-well plate. Cell counts were repeated at day 7 and transferred to T25 flasks. On day 11, all cells were harvested and counted.

[2] = tested on: NALM6.GFP.LUC.CD19 target cells; assay: Serial killing assay; format: cell-based, human
Protocol: CD19 CAR-T cells were thawed in RPMI media supplemented with HEPES, Penicillin/Streptomycin/L-Glutamine and 10% FBS and rested overnight. The following day, drugs were serially diluted and prepared in 96-well plates. Rested T cells were counted and normalized so that 25,000 or 8,333 T cells were plated with 25,000 NALM6.GFP.LUC.CD19 target cells (1:1 or 1:3 Effector:Target ratio) in the prepared 96-well plates. At 16 hour post-incubation and every 3-4 days, T cell killing of targets was measured via luciferase detection. D-luciferin substrate was added to the co-culture wells at a final concentration of 0.14 mg/mL and plates were incubated at 37° C. in the dark for 10 minutes. Luminescent signal was read immediately after in a VarioSkan™ LUX microplate reader. T cell-mediated cytotoxicity was calculated as follows: % Cytotoxicity=[1−luciferase signal of (sample of interest/target alone control)]*100. Afterwards, co-cultures were stained with LIVE/DEAD and antibodies against CD4, CD8 and KIP-1 and then washed. Cells were then analyzed and quantified via the Attune NxT flow cytometer. T cells were then repeatedly stimulated with fresh 25,000 target cells, and this process was repeated every 3-4 days.

[3] = tested on: CAR-T cells; assay: CAR-T cell expansion assay (KIP-1 or CD3/CD28 stimulation); settings: for % viabili.: CD3/CD28 stimulation; for % viabi.: KIP-1 stimulation
Protocol: as §1

[4] = cited from earlier work

Compound `CCS(=O)(=O)N1CC(CC#N)(n2cc(-c3ncnc4[nH]ccc34)cn2)C1` [baricitinib] has a viability at 0 day, 5 nM [1] of 75%, a viability at 0 day, 10 nM [1] of 75% and a viability at 4 day, 5 nM [1] of 67.4%. It also gave a viability at 4 day, 10 nM [1] of 58.9%, a viability at 8 day, 5 nM [1] of 72.7% and a viability at 12 day, 5 nM [1] of 82.3%. The viability at 12 day, 10 nM [1] was 71.2%, the “reduction of clinical dosing required to avoid negative impacts on product performance” value [2] was “roughly 4 fold” and the “% viability” value ([3]; CD3/CD28, dose 5 nM, day 4) was 72.9%. The “% viability” value ([3]; CD3/CD28, dose 5 nM, day 8) was 55.7%, the “% viability” value ([3]; CD3/CD28, dose 5 nM, day 12) was 83.1% and the “% viability” value ([3]; CD3/CD28, dose 10 nM, day 4) was 70.7%. The “% viability” value ([3]; CD3/CD28, dose 10 nM, day 12) was 84.7%, the “% viabili.” value ([3]; 10 nM, Day 0) was 84% and the “% viabili.” value ([3]; 10 nM, Day 4) was 82.3%. The “% viabili.” value ([3]; 10 nM, Day 8) was 90.2%, the “% viabili.” value ([3]; 10 nM, Day 12) was 80.2% and the “% viabili.” value ([3]; 20 nM, Day 0) was 84%. The “% viabili.” value ([3]; 20 nM, Day 4) was 86.4%, the “% viabili.” value ([3]; 20 nM, Day 8) was 82.5% and the “% viabili.” value ([3]; 20 nM, Day 12) was 76.7%. For the same compound, the “% viabili.” value ([3]; 40 nM, Day 0) was 84%, the “% viabili.” value ([3]; 40 nM, Day 4) was 89.8% and the “% viabili.” value ([3]; 40 nM, Day 8) was 85.7%. For the same compound, the “% viabili.” value ([3]; 40 nM, Day 12) was 74.7%, the “% viabili.” value ([3]; 60 nM, Day 0) was 84% and the “% viabili.” value ([3]; 60 nM, Day 4) was 91.7%. For the same compound, the “% viabili.” value ([3]; 60 nM, Day 8) was 91.3%, the “% viabili.” value ([3]; 60 nM, Day 12) was 71.5% and the “% viabili.” value ([3]; 80 nM, Day 0) was 84%. The “% viabili.” value ([3]; 80 nM, Day 4) was 91.1%, the “% viabili.” value ([3]; 80 nM, Day 8) was 83.6% and the “% viabili.” value ([3]; 80 nM, Day 12) was 67.7%. The “% viabili.” value ([3]; 100 nM, Day 0) was 84%, the “% viabili.” value ([3]; 100 nM, Day 4) was 86.8% and the “% viabili.” value ([3]; 100 nM, Day 8) was 73.3%. The “% viabili.” value ([3]; 100 nM, Day 12) was 76.3%, the “% viability” value ([3]; KIP-1, dose 10 nM, day 8) was 58.7% and the “% viabi.” value ([3]; 10 nM, Day 0) was 84%. For the same compound, the “% viabi.” value ([3]; 10 nM, Day 4) was 64.7%, the “% viabi.” value ([3]; 10 nM, Day 8) was 55.2% and the “% viabi.” value ([3]; 10 nM, Day 12) was 70.4%. The “% viabi.” value ([3]; 20 nM, Day 0) was 84%, the “% viabi.” value ([3]; 20 nM, Day 4) was 61.3% and the “% viabi.” value ([3]; 20 nM, Day 8) was 78%. For the same compound, the “% viabi.” value ([3]; 20 nM, Day 12) was 73.5%, the “% viabi.” value ([3]; 40 nM, Day 0) was 84% and the “% viabi.” value ([3]; 40 nM, Day 4) was 65%. For the same compound, the “% viabi.” value ([3]; 40 nM, Day 8) was 77.8%, the “% viabi.” value ([3]; 40 nM, Day 12) was 68.8% and the “% viabi.” value ([3]; 60 nM, Day 0) was 84%. The “% viabi.” value ([3]; 60 nM, Day 4) was 57.8%, the “% viabi.” value ([3]; 60 nM, Day 8) was 57.6% and the “% viabi.” value ([3]; 60 nM, Day 12) was 70.8%. The “% viabi.” value ([3]; 80 nM, Day 0) was 84%, the “% viabi.” value ([3]; 80 nM, Day 4) was 66.2% and the “% viabi.” value ([3]; 80 nM, Day 8) was 69.4%. For the same compound, the “% viabi.” value ([3]; 80 nM, Day 12) was 69.5%, the “% viabi.” value ([3]; 100 nM, Day 0) was 84% and the “% viabi.” value ([3]; 100 nM, Day 4) was 67.7%. For the same compound, the “% viabi.” value ([3]; 100 nM, Day 8) was 78.1%, the “% viabi.” value ([3]; 100 nM, Day 12) was 65.2% and the Cmax ([4]; clinical dosing 2 mg daily, cell prints (nM)) was 45.7 nM. The Protein binding ([4]; plasma protein binding, reported) was 50%.
